Experimental data reported in patent publication US9365583B2, “Substituted pyrazoles and uses thereof” (Genentech, Inc., priority 2013, dated 2016).

These compounds were tested against T1, N-terminally GST-tagged DLK (catalytic domain amino acid 1-520) (Homo sapiens, UniProt Q12852) (assay: DLK TR-FRET inhibition assay). Settings: 5 nM GST-DLK, 40 nM HIS-MKK4 K131M substrate, 30 μM ATP, 60 minutes at ambient temperature.
T1 construct: N-terminally GST-tagged DLK (catalytic domain amino acid 1-520); purchased Carna Bioscience
T1 sequence (Q12852 1-520): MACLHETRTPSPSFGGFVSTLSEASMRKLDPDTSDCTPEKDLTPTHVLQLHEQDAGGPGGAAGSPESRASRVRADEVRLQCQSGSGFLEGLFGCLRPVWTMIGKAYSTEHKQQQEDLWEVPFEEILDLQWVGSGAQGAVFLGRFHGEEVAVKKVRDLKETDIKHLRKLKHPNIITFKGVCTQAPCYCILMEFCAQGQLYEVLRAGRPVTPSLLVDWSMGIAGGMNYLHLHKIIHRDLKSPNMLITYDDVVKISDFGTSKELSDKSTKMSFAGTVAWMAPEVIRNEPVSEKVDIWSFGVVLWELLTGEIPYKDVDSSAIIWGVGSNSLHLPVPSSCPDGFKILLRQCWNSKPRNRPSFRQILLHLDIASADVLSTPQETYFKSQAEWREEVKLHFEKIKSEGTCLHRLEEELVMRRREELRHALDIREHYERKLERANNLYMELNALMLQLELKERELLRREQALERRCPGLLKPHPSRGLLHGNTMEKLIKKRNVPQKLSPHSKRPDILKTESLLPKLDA
Assay type: biochemical
Outline: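 Phosphorylated MKK4 was quantified by TR-FRET (Eu-labelled anti-phospho-MKK4, D2 anti-HIS; 3 h, 665 and 615 nm emission) after EDTA quench. Reactions held 5 nM GST-tagged DLK catalytic domain (1-520), 40 nM HIS-MKK4 K131M substrate, 30 μM ATP and compound (3-fold series from 20 uM), 60 min, room temperature, pH 7.5.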
With CC(C)n1nc(-c2cnc(N)c(OC(F)F)c2)cc1[C@H]1[C@@H]2C[C@H](N3CCN(C)C[C@@H]3C)C[C@@H]21 [compound 238, 3-(difluoromethoxy)-5-(5-((1R,3r,5S,6S)-3-((S)-2,4-dimethyl-piperazin-1-yl)bicyclo[3.1.0]hexan-6-yl)-1-isopropyl-1H-pyrazol-3-yl)pyridin-2-amine] the Ki was 1.6 nM. CC(C)n1nc(-c2cnc3ccn([C@H](C)c4ccccn4)c3c2)cc1[C@H]1[C@@H]2C[C@@H](N3CCOCC3)C[C@@H]21 [compound 25, 4-((1R,3S,5S,6r)-6-(1-isopropyl-3-(1-((R)-1-(pyridin-2-yl)ethyl)-1H-pyrrolo[3,2-b]pyridin-6-yl)-1H-pyrazol-5-yl)bicyclo[3.1.0]hexan-3-yl)morpholine] showed a Ki of 70.6 nM. For CC(C)n1nc(-c2cnc(N)c(OC(F)F)c2)cc1[C@H]1[C@@H]2C[C@H](N3CCN(C)CC3)C[C@@H]21 [compound 198, 3-(difluoromethoxy)-5-(1-isopropyl-5-((1R,3r,5S,6r)-3-(4-methyl-piperazin-1-yl)bicyclo[3.1.0]hexan-6-yl)-1H-pyrazol-3-yl) pyridin-2-amine], the Ki was 2.1 nM. Compound CC(C)n1nc(-c2cnc(N)c(C(F)(F)F)c2)cc1[C@H]1[C@@H]2C[C@H](N3CCN(CC(F)F)CC3)C[C@@H]21 [compound 265, 5-(5-((1R,3r,5S,6r)-3-(4-(2,2-difluoroethyl)piperazin-1-yl)bicyclo[3.1.0]hexan-6-yl)-1-isopropyl-1H-pyrazol-3-yl)-3-(trifluoromethyl)pyridin-2-amine] has a Ki of 2.5 nM. CC(C)n1nc(-c2cnc(N)c(OC(F)(F)F)c2)cc1[C@H]1[C@@H]2C[C@H](N3CCOCC3)C[C@@H]21 [compound 69, 5-(1-isopropyl-5-((1R,3r,5S,6r)-3-morpholinobicyclo[3.1.0]hexan-6-yl)-1H-pyrazol-3-yl)-3-(trifluoromethoxy)pyridin-2-amine] was tested, and the Ki was 2.97 nM. CC(C)n1nc(-c2cnc3ccn([C@@H](C)c4ccccn4)c3c2)cc1[C@H]1[C@@H]2C[C@H](N3CCOCC3)C[C@@H]21 [compound 27, 4-((1R,3S,5S,6r)-6-(1-isopropyl-3-(1-((S)-1-(pyridin-2-yl)ethyl)-1H-pyrrolo[3,2-b]pyridin-6-yl)-1H-pyrazol-5-yl)bicyclo[3.1.0]hexan-3-yl)morpholine] was tested, and the Ki was 0.14 nM. With CC(C)n1nc(-c2cnc(N)c(C(F)(F)F)c2)cc1[C@H]1[C@@H]2C[C@@H](N3C[C@@H]4C[C@H]3CN4C)C[C@@H]21 [compound 207, 5-(1-isopropyl-5-((1R,3s,5S,6S)-3-((1S,4S)-5-methyl-2,5-diazabicyclo [2.2.1]heptan-2-yl)bicyclo [3.1.0]hexan-6-yl)-1H-pyrazol-3-yl)-3-(trifluoromethyl) pyridin-2-amine] the Ki was 3.6 nM. Nc1ncc(-c2cc([C@H]3[C@@H]4C[C@H](N5CCOCC5)C[C@@H]43)n(CC(F)F)n2)cc1C(F)(F)F [compound 91, 5-(1-(2,2-difluoroethyl)-5-((1R,3r,5S,6r)-3-morpholinobicyclo [3.1.0]hexan-6-yl)-1H-pyrazol-3-yl)-3-(trifluoromethyl)pyridin-2-amine] was tested, and the Ki was 3.79 nM. COC1CN([C@H]2C[C@@H]3[C@H](C2)[C@H]3c2cc(-c3cnc(N)c(OC(F)(F)F)c3)nn2C(C)C)C1 [compound 39, 5-(1-isopropyl-5-((1R,3r,5S,6r)-3-(3-methoxyazetidin-1-yl)bicyclo[3.1.0]hexan-6-yl)-1H-pyrazol-3-yl)-3-(trifluoromethoxy) pyridin-2-amine] was tested, and the Ki was 2.06 nM. In the case of CC(C)n1nc(-c2cnc(N)c(C(F)(F)F)c2)cc1[C@H]1[C@@H]2C[C@@H](N3CCO[C@@H](C)C3)C[C@@H]21 [compound 112, 5-(1-isopropyl-5-((1R,3s,5S,6S)-3-((S)-2-methylmorpholino)bicyclo[3.1.0]hexan-6-yl)-1H-pyrazol-3-yl)-3-(trifluoromethyl) pyridin-2-amine], the Ki is reported as 5.87 nM. For Nc1ncc(-c2cc([C@H]3[C@@H]4C[C@@H](N5CCOCC5)C[C@@H]43)n(CC3CC3)n2)cc1C(F)(F)F [compound 280, 5-(1-(cyclopropylmethyl)-5-((1R,3s,5S,6r)-3-morpholinobicyclo [3.1.0]hexan-6-yl)-1H-pyrazol-3-yl)-3-(trifluoromethyl)pyridin-2-amine], the Ki was 1.1 nM. Compound COCC1(F)CCN(C2C[C@@H]3C(c4cc(-c5cnc(N)c(OC(F)F)c5)nn4C(C)C)[C@@H]3C2)C1 (single isomer, unassigned) [compound 171] has a Ki of 5.4 nM. For CC(C)n1nc(-c2cnc(N)c(OC(F)F)c2)cc1[C@H]1[C@@H]2C[C@@H](NCC(F)F)C[C@@H]21 [compound 255, 5-(5-((1R,3s,5S,6r)-3-((2,2-difluoroethyl)amino)bicyclo[3.1.0]hexan-6-yl)-1-isopropyl-1H-pyrazol-3-yl)-3-(difluoromethoxy) pyridin-2-amine], the Ki was 1.5 nM. With CC(C)n1nc(-c2cnc(N)c(OC(F)(F)F)c2)cc1[C@H]1[C@@H]2C[C@@H](N3CCCN(C)CC3)C[C@@H]21 [compound 203, 5-(1-isopropyl-5-((1R,3s,5S,6r)-3-(4-methyl-1,4-diazepan-1-yl)bicyclo[3.1.0]hexan-6-yl)-1H-pyrazol-3-yl)-3-(trifluoromethoxy) pyridin-2-amine] the Ki was 0.9 nM. Work on COC1CN([C@H]2C[C@@H]3[C@H](C2)[C@H]3c2cc(-c3cnc(N)c(C(F)(F)F)c3)nn2CC(F)F)C1 [compound 144, 5-(1-(2,2-difluoroethyl)-5-((1R,3r,5S,6r)-3-(3-methoxyazetidin-1-yl)bicyclo[3.1.0]hexan-6-yl)-1H-pyrazol-3-yl)-3-(trifluoro-methyl)pyridin-2-amine] yielded a Ki of 2.8 nM. CC(C)n1nc(-c2cnc(N)c(OC(F)F)c2)cc1[C@H]1[C@@H]2C[C@H](N3CC4CC(C3)O4)C[C@@H]21 [compound 271, 5-(5-((1R,3r,5S,6r)-3-(6-oxa-3-azabicyclo[3.1.1]heptan-3-yl)bicyclo[3.1.0]hexan-6-yl)-1-iso-propyl-1H-pyrazol-3-yl)-3-(difluoro-methoxy)pyridin-2-amine] was tested, and the Ki was 2.6 nM. CC(C)n1nc(-c2cnc(N)c(C(F)(F)F)c2)cc1[C@H]1[C@@H]2C[C@H](N3C[C@H]4C[C@@H]3CO4)C[C@@H]21 [compound 55, 5-(5-((1R,3r,5S,6R)-3-((1R,4R)-2-oxa-5-azabicyclo[2.2.1]heptan-5-yl)bicyclo[3.1.0]hexan-6-yl)-1-isopropyl-1H-pyrazol-3-yl)-3-(trifluoromethyl)pyridin-2-amine] showed a Ki of 5.4 nM. For Nc1ncc(-c2cc([C@H]3[C@@H]4C[C@@H](N5CCOCC5)C[C@@H]43)n(CC(F)F)n2)cc1OC(F)F [compound 160, 5-(1-(2,2-difluoroethyl)-5-((1R,3s,5S,6r)-3-morpholinobicyclo [3.1.0]hexan-6-yl)-1H-pyrazol-3-yl)-3-(difluoromethoxy) pyridin-2-amine], the Ki was 2.4 nM. With CC(C)n1nc(-c2cnc(N)c(OC(F)(F)F)c2)cc1[C@H]1[C@@H]2C[C@H](N3CCNCC3)C[C@@H]21 [compound 244, 5-(1-isopropyl-5-((1R,3r,5S,6r)-3-(piperazin-1-yl)bicyclo[3.1.0]hexan-6-yl)-1H-pyrazol-3-yl)-3 - (trifluoromethoxy)pyridin-2-amine] the Ki was 1.1 nM. For COCCN(C)[C@@H]1C[C@@H]2[C@H](C1)[C@H]2c1cc(-c2cnc(N)c(C(F)(F)F)c2)nn1C(C)C [compound 291, 5-(1-isopropyl-5-((1R,3s,5S,6r)-3-((2-methoxyethyl)(methyl)amino)bicyclo[3.1.0]hexan-6-yl)-1H-pyrazol-3-yl)-3-(trifluoromethyl) pyridin-2-amine], the Ki was 4.7 nM. For CC(C)n1nc(-c2cnc(N)c(OC(F)(F)F)c2)cc1[C@H]1[C@@H]2C[C@@]3(CCN3CC(F)F)C[C@@H]21 [compound 147, 5-(5-((1′R,2r,5′S,6′r)-1-(2,2-difluoro-ethyl)spiro[azetidine-2,3′-bicyclo[3.1.0]hexan]-6′-yl)-1-isopropyl-1H-pyrazol-3-yl)-3-(trifluoro-methoxy)pyridin-2-amine], the Ki was 5.7 nM. Compound CC(C)n1nc(-c2cnc(N)c(OC(F)(F)F)c2)cc1[C@H]1[C@@H]2C[C@H](N3CC(F)(F)C3)C[C@@H]21 [compound 53, 5-(5-((1R,3r,5S,6r)-3-(3,3-difluoro-azetidin-1-yl)bicyclo[3.1.0]hexan-6-yl)-1-isopropyl-1H-pyrazol-3-yl)-3-(trifluoromethoxy) pyridin-2-amine] has a Ki of 4.72 nM. Work on CC(C)n1nc(-c2cnc(N)c(C(F)(F)F)c2)cc1[C@H]1[C@@H]2C[C@H](N3C[C@@H]4C[C@H]3CN4C)C[C@@H]21 [compound 200, 5-(1-isopropyl-5-((1R,3r,5S,6S)-3-((1S,4S)-5-methyl-2,5-diazabicyclo [2.2.1]heptan-2-yl)bicyclo [3.1.0]hexan-6-yl)-1H-pyrazol-3-yl)-3-(trifluoromethyl)pyridin-2-amine] yielded a Ki of 2 nM.
